# “Also recorded” adds a separate entry of the source.
# T1: VEGF (Homo sapiens, UniProt P15692)
# T1 sequence (P15692 207-320 limits assumed): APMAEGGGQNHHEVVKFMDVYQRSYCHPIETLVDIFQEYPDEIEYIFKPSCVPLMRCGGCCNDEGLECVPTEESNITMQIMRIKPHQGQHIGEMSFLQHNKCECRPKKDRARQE
# B1: VEGFR-1/Fc: sVEGFR-1 fusion protein with the Fc domain of human immunoglobulins (protein)
# chain: SKLKDPELSLKGTQHIMQAGQTLHLQCRGEAAHKWSLPEMVSKESERLSITKSACGRNGKQFCSTLTLNTAQANHTGFYSCKYLAVPTSKKKETESAIYIFISDTGRPFVEMYSEIPEIIHMTEGRELVIPCRVTSPNITVTLKKFPLDTLIPDGKRIIWDSRKGFIISNATYKEIGLLTCEATVNGHLYKTNYLTHRQTNTIIDVQISTPRPVKLLRGHTLVLNCTATTPLNTRVQMTWSYPDEKNKRASVRRRIDQSNSHANIFYSVLTIDKMQNKDKGLYTCRVRSGPSFKSVNTSVHIYDKAFITVKHRKQQVLETVAGKRSYRLSMKVKAFPSPEVVWLKDGLPATEKSARYLTRGYSLIIKDVTEEDAGNYTILLSIKQSNVFKNLTATLIVNVKPQIYEKAVSSFPDPALYPLGSRQILTCTAYGIPQPTIKWFWHPCNHNHSEARCDFCSNNEESFILDADSNMGNRIESITQRMAIIEGKNKMASTLVVADSRISGIYICIASNKVGTVGRNISFYITDVPNGFHVNLEKMPTEGEDLKLSCTVNKFLYRDVTWILLRTVNNRTMHYSISKQKMAITKEHSITLNLTIMNVSLQDSGTYACRARNVYTGEEILQKKEITIRGEHCNKKAVFSRISKFKSTRNDCTTQSNVKH
# modifications: left off: a dimerising Fc or GST
# notes: sVEGFR-1 fusion protein with the Fc domain of human immunoglobulins
# B2: dII recombinant: recombinant protein corresponding to VEGFR-1 domain II (residues 129-229), produced in SF9 cells (protein)
# chain: SDTGRPFVEMYSEIPEIIHMTEGRELVIPCRVTSPNITVTLKKFPLDTLIPDGKRIIWDSRKGFIISNATYKEIGLLTCEATVNGHLYKTNYLTHRQTNTI
# modifications: left off: small tags and cut ends
# notes: recombinant protein corresponding to VEGFR-1 domain II (residues 129-229), produced in SF9 cells
# B3: peptide 12 (NYLTHRQ, VEGFR-1 residues 219-225) (peptide)
# peptide: NYLTHRQ
# notes: Covalently linked to plates or coated on magnetic beads, or added in solution to HUVEC; also called P12; original peptide 12
# Tests used:
# [1] = test system: HUVEC adhesion to peptide 12; assay: adhesion of HUVEC to peptide 12 in presence of chelating agents or anti-integrin antibodies; type: cell-based, human; settings: HUVEC on plates covered with peptide 12
# Protocol: The peptide 12 or the BSA, as non-specific adhesion control, were linked on plates and the HUVEC added in the presence of chelating agents (EDTA or EGTA).
# The HUVEC were pre-incubated with an antibody against the integrin α5β1 or versus the integrinic subunit α6 and left to adhere on plates covered with peptide 12 or BSA.
# [2] = test system: HUVEC migration induced from VEGFR-1/Fc; assay: EC migration in Boyden chambers induced by VEGFR-1/Fc; type: cell-based, human; settings: HUVEC pre-incubated with peptide
# Protocol: In order to investigate the ability to peptide 12 to influence the migration of the EC induced from VEGFR-1/Fc, a process mediated from the integrin α5β1, the HUVEC were pre-incubated with peptide 12 and peptide 1 and placed in Boyden chambers in order to analyze the migration induced from VEGFR-1/Fc or fibronectin (FN). Data represent the average of 14 microscopic fields and are referred to as percentage of inhibition compared to the migration observed in the absence of peptides.
# [3] = test system: HUVEC; assay: formation of tubules of EC in Type I collagen gel; type: cell-based, human
# Protocol: It was tested the ability of the peptide 12 to induce the formation of tubules of EC. HUVEC cells were plated on 24 wells plates previously covered with a mixture of gel Type I collagen, in the absence or presence of 500 μg/ml peptide 12 or peptide 1. A second layer of gel Type I collagen was placed on the adherent cells. As shown, in the absence or presence of peptides, were added, in the culture medium, different concentrations of VEGF (40 or 100 nM), or 20 μg/ml of protein VEGFR-1/Fc.
# [4] = molecular target: T2, integrin α5β1 (Homo sapiens, UniProt P05556+P08648); assay: solid-phase binding of integrin α5β1 to alanine-substituted peptide 12 mutants; settings: purified integrin α5β1 on plates covered with mutant peptides
# T2 sequence (P08648 42-894 limits assumed): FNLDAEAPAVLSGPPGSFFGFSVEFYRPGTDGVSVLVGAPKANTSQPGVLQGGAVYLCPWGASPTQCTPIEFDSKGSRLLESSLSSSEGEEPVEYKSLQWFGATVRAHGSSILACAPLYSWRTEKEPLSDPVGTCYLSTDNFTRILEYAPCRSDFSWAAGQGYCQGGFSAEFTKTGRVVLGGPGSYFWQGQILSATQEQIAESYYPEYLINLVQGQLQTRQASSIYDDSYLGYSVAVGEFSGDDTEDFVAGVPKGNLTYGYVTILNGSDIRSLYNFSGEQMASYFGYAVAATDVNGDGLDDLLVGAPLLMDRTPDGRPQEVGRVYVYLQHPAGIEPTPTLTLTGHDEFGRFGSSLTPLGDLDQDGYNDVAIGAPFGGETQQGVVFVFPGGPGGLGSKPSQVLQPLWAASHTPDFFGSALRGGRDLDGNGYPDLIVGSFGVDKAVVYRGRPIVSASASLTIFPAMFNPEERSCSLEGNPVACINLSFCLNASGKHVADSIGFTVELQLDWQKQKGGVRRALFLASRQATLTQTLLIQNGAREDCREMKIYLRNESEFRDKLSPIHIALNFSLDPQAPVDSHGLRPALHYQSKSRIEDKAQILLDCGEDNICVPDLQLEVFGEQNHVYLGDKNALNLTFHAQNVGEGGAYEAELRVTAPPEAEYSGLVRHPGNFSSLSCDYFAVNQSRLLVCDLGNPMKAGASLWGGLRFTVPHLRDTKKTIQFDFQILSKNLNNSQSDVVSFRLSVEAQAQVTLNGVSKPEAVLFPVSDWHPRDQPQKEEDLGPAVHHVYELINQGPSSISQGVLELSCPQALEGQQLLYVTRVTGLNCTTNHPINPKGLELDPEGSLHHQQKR
# T2 sequence (P08648 895-1049 partner limits assumed): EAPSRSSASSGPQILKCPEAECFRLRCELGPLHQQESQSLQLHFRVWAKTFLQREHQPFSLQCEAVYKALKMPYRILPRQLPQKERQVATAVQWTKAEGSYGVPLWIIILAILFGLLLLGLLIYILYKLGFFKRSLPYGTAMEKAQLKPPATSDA
# T2 sequence (P05556 21-798): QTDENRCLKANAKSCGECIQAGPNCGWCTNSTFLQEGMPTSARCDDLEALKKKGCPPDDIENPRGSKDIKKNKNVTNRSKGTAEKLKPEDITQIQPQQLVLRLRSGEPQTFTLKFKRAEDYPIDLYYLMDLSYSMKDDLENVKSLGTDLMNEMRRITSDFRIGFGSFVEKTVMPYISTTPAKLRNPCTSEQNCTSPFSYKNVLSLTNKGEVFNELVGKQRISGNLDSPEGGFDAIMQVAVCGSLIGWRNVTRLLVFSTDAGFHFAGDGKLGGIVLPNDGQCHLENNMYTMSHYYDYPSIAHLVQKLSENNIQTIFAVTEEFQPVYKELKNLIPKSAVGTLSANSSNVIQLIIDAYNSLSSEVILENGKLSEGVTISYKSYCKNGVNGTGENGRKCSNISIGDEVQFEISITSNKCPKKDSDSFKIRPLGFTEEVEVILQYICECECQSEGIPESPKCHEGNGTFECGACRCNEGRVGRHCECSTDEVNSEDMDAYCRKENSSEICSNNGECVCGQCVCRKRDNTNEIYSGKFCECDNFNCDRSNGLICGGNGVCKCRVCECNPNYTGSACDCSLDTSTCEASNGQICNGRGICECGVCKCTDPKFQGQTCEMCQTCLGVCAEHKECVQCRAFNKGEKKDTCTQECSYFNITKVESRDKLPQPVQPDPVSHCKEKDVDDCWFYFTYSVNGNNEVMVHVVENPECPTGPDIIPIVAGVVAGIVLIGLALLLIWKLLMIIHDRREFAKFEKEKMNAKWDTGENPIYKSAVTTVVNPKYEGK
# Protocol: Was also assessed the direct binding to integrin α5β1 with mutant peptides by a binding test on solid phase. The integrin α5β1 purified was added to plates covered with the various peptides and the amount bound was measured using an antibody anti-integrin α5β1 with a calorimetric method. The data were expressed as percentage of protein linked observed on plates covered with the original peptide 12.
# [5] = test system: HUVEC; assay: cellular adhesion of HUVEC to alanine-substituted peptide 12 mutants; type: cell-based, human; settings: mutant peptides covalently linked to plates
# Protocol: These peptides were tested for their ability to directly support the cellular adhesion. The ten peptides were covalently linked to plates, and were also tested, as negative controls, a peptide “scrambled” in which the amino acid sequence of the peptide 12 was modified (see Table 1.) (sP12) and BSA. The HUVEC were plated and allow to adhere. The results were expressed as percentage of the cellular adhesion observed on plates covered with the peptide 12.
# [6] = test system: HUVEC adhesion to fibronectin (FN); assay: inhibition by peptides of EC adhesion to fibronectin; type: cell-based, human; settings: peptide added to HUVEC suspension before plating
# Protocol: (§1) In order to test the ability of the twelve chosen peptides to inhibit the adhesion of the EC to VEGFR-1 mediated from the integrin α5β1, every peptide was added to one suspension of HUVEC before plated on dishes covered with VEGFR-1/Fc or fibronectin (FN). The data were indicated as percentage of adhesion, calculated to the number of cells adhered on the substrate itself in absence of peptides.
# [7] = test system: HUVEC adhesion to VEGFR-1/Fc; assay: inhibition by peptides of EC adhesion to VEGFR-1/Fc; type: cell-based, human; settings: peptide added to HUVEC suspension before plating
# Protocol: as §1
# [8] = molecular target: T1, VEGF; settings: previously published; cited from earlier work
# [9] = test system: angiogenesis; settings: previously published; cited from earlier work
# [10] = molecular target: T2, integrin α5β1; assay: integrin α5β1 aggregation around peptide-coated magnetic beads (immunostaining); type: cell-based; parameters: endogenous in cells; host or cells: HUVEC; settings: magnetic beads coated with peptide, immunostaining for integrin α5β1
# Protocol: The integrins not linked are widely distributed on cellular membrane, but after the ligand binding and the activation merged in distinct structures called focal contacts and ECM contact.
# (§2) It was examined whether the peptide 12 was able to induce aggregation of integrin α5β1 after the binding. EC adherent cells were incubated with magnetic beads coated with peptide 12, or peptide RGD or peptide RGE respectively as positive and negative controls, and immunostained with an antibody against integrin α5β1.
# [11] = molecular target: T2, integrin α5β1; assay: solid-phase binding of purified integrin α5β1 to plates covered with dII or VEGFR-1/Fc; settings: anti-integrin α5β1 antibody, colorimetric, absorbance at 405 nm
# Protocol: The direct bind of the integrin α5β1 to the domain had been determined also with binding test on solid phase. The purified integrin α5β1 was added to plates covered with dII or with VEGFR-1/Fc like positive control and the integrin bound was measured using an antibody anti-integrin α5β1 and a colorimetric test.
# [12] = test system: HUVEC; assay: adhesion of HUVEC on plates covered with recombinant protein; type: cell-based, human; settings: plates covered with the protein; absorbance at 540 nm
# Protocol: The endothelial cells derived from human umbilical vein (HUVEC) were used to examine ability of the domain II to support the adhesion of EC in plates covered with the recombinant protein.
# The HUVEC were incubated on plates covered with VEGFR-1 FC, with the domain II (dII) recombinant, with fibronectin (FN) or bovine serum albumin (BSA). The protein VEGFR-1/Fc, and the fibronectin were used as positive controls and BSA as negative control.
# The cells assayed were coloured and the absorbance was measured.
# [13] = molecular target: T3, integrin α5β1 on endothelial cells derived from human umbilical vein (HUVEC) (human, UniProt P08648 42-1049; P05556 21-798); assay: magnetic beads coated with peptide on adherent HUVEC, immunostaining for integrin α5β1
# T3 construct: whole, on cells; Endogenous integrin on HUVEC in the adhesion, migration and bead tests; also called integrin α5β1 of the EC
# T3 sequence (P08648 42-1049, chain 1 of 2): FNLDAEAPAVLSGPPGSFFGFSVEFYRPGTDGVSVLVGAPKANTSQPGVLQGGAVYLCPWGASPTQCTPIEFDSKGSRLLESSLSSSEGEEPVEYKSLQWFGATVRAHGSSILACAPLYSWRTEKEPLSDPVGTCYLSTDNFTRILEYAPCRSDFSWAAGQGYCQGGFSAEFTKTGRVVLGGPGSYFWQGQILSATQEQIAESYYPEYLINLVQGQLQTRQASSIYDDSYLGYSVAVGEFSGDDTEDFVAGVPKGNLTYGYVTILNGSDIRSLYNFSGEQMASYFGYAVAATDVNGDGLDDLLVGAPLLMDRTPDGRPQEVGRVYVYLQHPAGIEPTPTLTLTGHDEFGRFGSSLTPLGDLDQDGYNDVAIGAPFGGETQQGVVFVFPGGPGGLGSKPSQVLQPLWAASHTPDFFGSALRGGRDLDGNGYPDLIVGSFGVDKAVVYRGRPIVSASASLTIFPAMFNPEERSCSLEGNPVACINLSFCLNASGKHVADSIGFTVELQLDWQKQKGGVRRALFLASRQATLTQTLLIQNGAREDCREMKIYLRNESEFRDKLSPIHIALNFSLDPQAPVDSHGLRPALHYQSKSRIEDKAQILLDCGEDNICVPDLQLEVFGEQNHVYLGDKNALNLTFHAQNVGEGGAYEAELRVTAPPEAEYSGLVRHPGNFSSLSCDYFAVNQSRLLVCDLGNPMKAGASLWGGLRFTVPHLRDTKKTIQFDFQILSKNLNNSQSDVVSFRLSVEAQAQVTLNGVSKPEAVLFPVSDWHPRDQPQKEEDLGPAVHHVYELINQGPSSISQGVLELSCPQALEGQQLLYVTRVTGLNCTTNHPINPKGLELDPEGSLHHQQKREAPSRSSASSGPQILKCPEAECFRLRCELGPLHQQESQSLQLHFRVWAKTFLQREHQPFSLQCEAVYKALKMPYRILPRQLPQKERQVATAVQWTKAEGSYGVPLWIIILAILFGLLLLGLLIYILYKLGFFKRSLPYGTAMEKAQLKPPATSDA
# T3 sequence (P05556 21-798, chain 2 of 2): as the sequence (P05556 21-798) above
# Protocol: as §2
molecule,measurement,setting,value
"O=C(O)CN(CCN(CC(=O)O)CC(=O)O)CC(=O)O [EDTA, reference compound]",effect of agent on adhesion of EC to peptide 12,[1],completely abolished adhesion of EC
"O=C(O)CN(CCOCCOCCN(CC(=O)O)CC(=O)O)CC(=O)O [EGTA, reference compound]",effect of agent on adhesion of EC to peptide 12,[1],completely abolished adhesion of EC
"GRPFVEMYSE (listed as Homo sapiens) [peptide 1, used as negative control]",inhibition of EC migration induced by VEGFR-1/Fc,[2],completely ineffective
same,effect on VEGF-induced tubule formation,[3]; 500 μg/ml peptide with VEGF 40 nM,neither increased the effect of VEGF
same,induction of formation of tubules of EC,"[3]; 500 μg/ml peptide, collagen I matrix",did not induce the formation of tubules
His 223 peptide mutant in Ala: peptide 12 with His 223 mutated to alanine (NYLTARQ),role of replaced residue in integrin α5β1 binding to mutant peptide relative to peptide 12,[4],important in supporting the protein/protein interaction
same,cellular adhesion to mutant peptide relative to peptide 12,[5],comparable
same,cellular adhesion to mutant peptide relative to peptide 12,[5]; listed as His 223,significantly reduce
KFPLDTLIPDG (listed as Homo sapiens) [peptide 7],inhibition of adhesion of EC to fibronectin,[6],partially inhibit
same,inhibition of adhesion of EC to VEGFR-1/Fc,[7],effectively blocked; also recorded: inhibit cellular adhesion to sVEGFR-1
NITVTLKKFPL (listed as Homo sapiens) [peptide 5],binding to VEGF / inhibition of VEGF binding to its receptors,[8],without binding to VEGF or inhibiting VEGF binding to its receptors
same,angiogenesis inhibitor activity,[9],act as an angiogenesis inhibitor
same,inhibition of adhesion of EC to VEGFR-1/Fc,[7],effectively blocked; also recorded: inhibit cellular adhesion to sVEGFR-1
"RGE [peptide RGE, reference compound]",integrin α5β1 aggregation / bead attachment on EC,[10],No beads covered with the peptide RGE was attached with HUVEC
TEGRELVIPARVT (listed as Homo sapiens) [peptide 4],inhibition of adhesion of EC to fibronectin,[6],partially inhibit
same,inhibition of adhesion of EC to VEGFR-1/Fc,[7],effectively blocked; also recorded: inhibit cellular adhesion to sVEGFR-1
Y220A: peptide 12 with Tyr 220 replaced with alanine (NALTHRQ),role of replaced residue in integrin α5β1 binding to mutant peptide relative to peptide 12,[4],residue more critical to the integrin binding
same,cellular adhesion to mutant peptide relative to peptide 12,[5],significantly reduce
same,cellular adhesion to mutant peptide relative to peptide 12,[5]; listed as Tyr 220 with ALA,completely abolished cellular adhesion
B1,effect of VEGFR-1/Fc on constitution of tubules,[3]; 20 μg/ml VEGFR-1/Fc in culture medium,strong inhibition of the constitution of tubules
same,amount of integrin α5β1 bound to coated protein,[11],a similar amount of integrin interacted
B2,adhesion of HUVEC to coated protein,[12],supported the adhesion of the HUVEC
same,amount of integrin α5β1 bound to coated protein,[11],a similar amount of integrin interacted
B3,binding result,[13],binds

# Source: patent US8093218B2, “Peptide derived from vascular endothelial growth factor receptor-1 binding integrin α5β1 having proangiogenic activity” (Provincia Italiana della Congregazione dei Figli …, priority 2006, dated 2012)
